Values belong to the compound of their own block, whether it stands above or below them.
Tests used:
[1] = tested on: Plasmodium falciparum; test: Antimalarial activity against Plasmodium falciparum 3D7 infected in human erythrocytes after 72 hrs by SYBR Green-1 staining based fluorescence assay; type: functional, organism-based; settings: 3D7, 72 h
[2] = tested on: Plasmodium falciparum; test: Antimalarial activity against chloroquine-resistant Plasmodium falciparum W2 infected in human red blood cells assessed as reduction in parasitic LDH activity by Malstat reagent based spectrophotometric method; type: functional, organism-based
[3] = tested on: Plasmodium falciparum; test: Antimalarial activity against chloroquine-sensitive Plasmodium falciparum D6 infected in human red blood cells assessed as reduction in parasitic LDH activity by Malstat reagent based spectrophotometric method; type: functional, organism-based
[4] = tested on: Plasmodium falciparum; test: Antimalarial activity against synchronous culture of Plasmodium falciparum W2 ring stage infected in human erythrocytes after 48 hrs by flow cytometry; type: functional, organism-based; settings: W2, 48 h
[5] = tested on: Plasmodium falciparum; test: Antimalarial activity against chloroquine-sensitive Plasmodium falciparum 3D7 infected in human erythrocytes after 72 hrs by SYBR Green-1 staining based fluorescence assay; type: functional, organism-based; settings: 3D7, 72 h
[6] = tested on: Plasmodium falciparum; test: Antimalarial activity against chloroquine-resistant Plasmodium falciparum FcB1/Columbia infected in human type A+ erythrocytes after 48 hrs by [3H]-hypoxanthine incorporation assay; type: functional, organism-based
[7] = tested on: Plasmodium falciparum; test: Antimalarial activity against chloroquine-resistant Plasmodium falciparum FCR-3/Gambia infected in human type A+ erythrocytes after 48 hrs by [3H]-hypoxanthine incorporation assay; type: functional, organism-based
[8] = tested on: Plasmodium falciparum; test: Antimalarial activity against chloroquine-resistant Plasmodium falciparum Palo Alto/Ouganda infected in human type A+ erythrocytes after 48 hrs by [3H]-hypoxanthine incorporation assay; type: functional, organism-based
[9] = tested on: Plasmodium falciparum; test: Antimalarial activity against chloroquine-resistant Plasmodium falciparum FcM29 infected in human type A+ erythrocytes after 48 hrs by [3H]-hypoxanthine incorporation assay; type: functional, organism-based
[10] = tested on: Plasmodium falciparum; test: Antimalarial activity against chloroquine-sensitive Plasmodium falciparum D6 infected in human type A+ erythrocytes after 48 hrs by [3H]-hypoxanthine incorporation assay; type: functional, organism-based
[11] = tested on: Plasmodium falciparum; test: Antimalarial activity against chloroquine-sensitive Plasmodium falciparum F32 infected in human type A+ erythrocytes after 48 hrs by [3H]-hypoxanthine incorporation assay; type: functional, organism-based
[12] = tested on: Plasmodium falciparum; test: microbe, parasite or virus in culture; settings: D10, 24 h
Description: Antimalarial activity against chloroquine-sensitive Plasmodium falciparum D10 after 24 hrs by [G-3H]-hypoxanthine incorporation assay

[13] = tested on: Plasmodium falciparum; test: Antimalarial activity against chloroquine-sensitive Plasmodium falciparum 3D7 infected in human type A+ erythrocytes after 24 hrs by [3H]-hypoxanthine incorporation assay; type: functional, organism-based
[14] = tested on: Plasmodium falciparum; test: Antimalarial activity against chloroquine-resistant Plasmodium falciparum W2 infected in human type A+ erythrocytes after 24 hrs by [3H]-hypoxanthine incorporation assay; type: functional, organism-based
[15] = tested on: Plasmodium falciparum; test: Antimalarial activity against chloroquine-resistant Plasmodium falciparum K1 infected in human type A+ erythrocytes after 48 hrs by [3H]-hypoxanthine incorporation assay; type: functional, organism-based
[16] = tested on: Plasmodium falciparum; test: Antimalarial activity against chloroquine-sensitive Plasmodium falciparum 3D7 infected in human type A+ erythrocytes after 48 hrs by [3H]-hypoxanthine incorporation assay; type: functional, organism-based
[17] = tested on: Plasmodium falciparum; test: Antimalarial activity against chloroquine-sensitive Plasmodium falciparum 3D7; settings: 3D7, read-out: ED50
[18] = tested on: Plasmodium falciparum; test: Antimalarial activity against chloroquine-resistant Plasmodium falciparum K1; type: functional; settings: read-out: ED50 (the source's name)

IC50 [5]: 0.012 to 0.207 µM
Structure (SMILES): C=C[C@H]1CN2CC[C@H]1C[C@H]2[C@H](OC(=O)[C@@H](NC(=O)c1cn(C2CC2)c2cc(N3CCN(CC)CC3)c(F)cc2c1=O)[C@@H](C)CC)c1ccnc2ccc(OC)cc12

IC50 [5]: 0.012 to 0.207 µM
Structure (SMILES): C=C[C@H]1CN2CC[C@H]1C[C@H]2[C@H](OC(=O)[C@H](CC(C)C)NC(=O)c1cn(CC)c2nc(C)ccc2c1=O)c1ccnc2ccc(OC)cc12

IC50 [1]: < 0.1 µM
Structure (SMILES): C=C[C@H]1CN2CC[C@H]1C[C@H]2[C@H](OC(=O)[C@H](Cc1cn(S(=O)(=O)c2ccc(C)cc2)cn1)NC(=O)OC(C)(C)C)c1ccnc2ccc(OC)cc12

IC50 [4]: 0.011 to 0.059 µM
Structure (SMILES): Cc1ccc(/C=C/C(=O)NCCCCNc2ccnc3cc(Cl)ccc23)cc1

IC50 [4]: 0.011 to 0.059 µM
Structure (SMILES): COc1ccc(/C=C/C(=O)NCCCCNc2ccnc3cc(Cl)ccc23)cc1

IC50 [5]: 0.012 to 0.207 µM
Structure (SMILES): C=C[C@H]1CN2CC[C@H]1C[C@H]2[C@H](OC(=O)CNC(=O)c1cn2c3c(c(N4CCN(C)CC4)c(F)cc3c1=O)OC[C@@H]2C)c1ccnc2ccc(OC)cc12

IC50 [1]: 0.017 µM
Structure (SMILES): C=C[C@H]1CN2CC[C@H]1C[C@H]2[C@H](OC(=O)[C@H](CC(=O)OCc1ccccc1)NC(=O)OCc1ccccc1)c1ccnc2ccc(OC)cc12

IC50 [5]: 0.012 to 0.207 µM
Structure (SMILES): C=C[C@H]1CN2CC[C@H]1C[C@H]2[C@H](OC(=O)CNC(=O)c1cn(C2CC2)c2cc(N3CCN(CC)CC3)c(F)cc2c1=O)c1ccnc2ccc(OC)cc12

IC50 [5]: > 20 µM
Structure (SMILES): C[C@H]1COc2c(N3CCN(C)CC3)c(F)cc3c(=O)c(C(=O)O)cn1c23 [LEVOFLOXACIN]

The remaining lines, values behind:

Structure (SMILES): C=C[C@H]1CN2CC[C@H]1C[C@H]2[C@H](OC(=O)[C@@H](CSCc1ccccc1)NC(=O)OCc1ccccc1)c1ccnc2ccc(OC)cc12
IC50 [1]: < 0.1 µM

Structure (SMILES): Cc1cccc(C)c1Nc1nc(OCc2cn(CCNc3ccnc4cc(Cl)ccc34)nn2)nc(N(C)C)n1
IC50 [2]: 0.73 µM
IC50 [3]: 0.58 µM

Structure (SMILES): O=C(/C=C/c1ccccc1)NCCCCNc1ccnc2cc(Cl)ccc12
IC50 [4]: 0.011 to 0.059 µM

Structure (SMILES): CC1(C)COC2(CCC(N[C@H]3CC[C@H](Nc4ccnc5cc(Cl)ccc45)CC3)CC2)OO1 (stereo partly specified)
IC50 [6]: 0.007 to 0.024 µM
IC50 [7]: 0.007 to 0.024 µM
IC50 [8]: 0.007 to 0.024 µM
IC50 [9]: 0.007 to 0.024 µM
IC50 [10]: 0.007 to 0.024 µM
IC50 [11]: 0.007 to 0.024 µM

Structure (SMILES): C=C[C@H]1CN2CC[C@H]1C[C@H]2[C@H](OC(=O)[C@H](Cc1ccccc1)NC(=O)OC(C)(C)C)c1ccnc2ccc(OC)cc12
IC50 [1]: < 0.1 µM

Structure (SMILES): CCN(CC)CCCC(C)Nc1cc(CCCCCCCCCCc2cc(NC(C)CCCN(CC)CC)c3ccccc3n2)nc2ccccc12 (stereo unspecified)
IC50 [12]: 0.043 µM

Structure (SMILES): O[C@@]12OOC3(C=C1C[C@@H]1C=C[C@H]2C1)CCN(c1ccnc2cc(Cl)ccc12)CC3
IC50 [13]: 6.05 to 6.75 µM
IC50 [14]: 6.05 to 6.75 µM

Structure (SMILES): COc1ccccc1N1CCN(CC2CN(CCNc3ccnc4cc(Cl)ccc34)C(=O)O2)CC1 (stereo unspecified)
IC50 [15]: 0.062 to 0.43 µM
IC50 [16]: 0.062 to 0.43 µM

Structure (SMILES): C=C[C@H]1CN2CC[C@H]1C[C@H]2[C@H](OC(=O)[C@H](CCCCNC(=O)OCc1ccccc1)NC(=O)OCc1ccccc1)c1ccnc2ccc(OC)cc12
IC50 [1]: < 0.1 µM

Structure (SMILES): O=C1OC(CN2CCN(c3ccccc3F)CC2)CN1CCNc1ccnc2cc(Cl)ccc12 (stereo unspecified)
IC50 [15]: 0.062 to 0.43 µM
IC50 [16]: 0.062 to 0.43 µM

Structure (SMILES): CCN(CC)CCCC(C)Nc1ccnc2cc(Cl)ccc12 (stereo unspecified) [CHLOROQUINE]
EC50 [17]: 0.02 µM
EC50 [18]: 1.03 µM

Structure (SMILES): O=C1OC(CN2CCN(c3ccc(F)cc3)CC2)CN1CCNc1ccnc2cc(Cl)ccc12 (stereo unspecified)
IC50 [15]: 0.062 to 0.43 µM
IC50 [16]: 0.062 to 0.43 µM

Structure (SMILES): CO[C@@]12OOC3(C=C1C[C@@H]1C=C[C@H]2C1)CCN(c1ccnc2cc(Cl)ccc12)CC3
IC50 [13]: 0.185 to 0.24 µM
IC50 [14]: 0.185 to 0.24 µM

Structure (SMILES): C=C[C@H]1CN2CC[C@H]1C[C@H]2[C@H](OC(=O)[C@H](C)NC(=O)OC(C)(C)C)c1ccnc2ccc(OC)cc12
IC50 [1]: < 0.1 µM

Structure (SMILES): C=C[C@H]1CN2CC[C@H]1C[C@H]2[C@H](OC(=O)[C@H](CCC(=O)OCc1ccccc1)NC(=O)OC(C)(C)C)c1ccnc2ccc(OC)cc12
IC50 [1]: < 0.1 µM

Structure (SMILES): O=C(/C=C/c1ccc(Cl)cc1)NCCCCNc1ccnc2cc(Cl)ccc12
IC50 [4]: 0.011 to 0.059 µM

Structure (SMILES): O=C1OC(CN2CCN(c3ccccc3Cl)CC2)CN1CCNc1ccnc2cc(Cl)ccc12 (stereo unspecified)
IC50 [15]: 0.062 to 0.43 µM
IC50 [16]: 0.062 to 0.43 µM

Structure (SMILES): O[C@@]12OOC3(C=C1C[C@@H]1CC[C@H]2C1)CCN(c1ccnc2cc(Cl)ccc12)CC3
IC50 [13]: 1.4 to 2.45 µM
IC50 [14]: 1.4 to 2.45 µM
